Measurements reported in US20240358885A1, “COMPOSITIONS FOR EMBOLIZATION” (IBERHOSPITEX, S.A., priority 2021, published 2024).

What was measured:
[1] = Precipitation behavior on slow injection into PBS; type: physicochemical; design: key: cohesive (2); cohesive with loss of some material (1); uncontrollable injection or not cohesive (0); conditions: score; 100 ul injected slowly into PBS, 27 G needle
Method: (§1) The resulting solutions were assayed to assess the precipitation behavior and the radiopacity loss.
Embolization formulations were slowly injected into phosphate buffered saline (PBS) using a syringe and a fine needle (27 G). Precipitates of embolizing material were obtained after slow injection (1 minute approximately) of 100 ul of embolization formulations. The precipitation behavior was observed and scored as cohesive (2), cohesive with loss of some material (1) and uncontrollable injection or not cohesive (0).

[2] = Radiopacity loss and homogeneity of precipitates incubated in PBS at 37° C.; type: physicochemical; design: key to Homogeneous radiopacity (0-1): non-homegeneous (score=0); homogeneous (score=1); conditions: for Radiopacity loss (0-3) / Homogeneous radiopacity (0-1): score; for Radiopacity loss (0-3): 30 days in PBS at 37° C. vs time=0, 150 mg equivalent iodine/ml with 6% ethylene vinyl alcohol copolymer in DMSO; for Homogeneous radiopacity (0-1): C-arm X-ray; for radiopacity loss in PBS over time (in words): PBS at 37° C., 30 min and 30 days
Method: as §1
Radiopacity loss of precipitates was determined by comparing the radiopacity of freshly prepared samples (time=0) and samples incubated for 30 days in phosphate buffered saline (PBS) at 37° C. PBS was changed daily when possible. Radiopacity was determined using a C-arm X-ray equipment (OEC Fluorostar 7900COMPACT2, General Electric). Radiopacity loss was scored as radiostable (score =0) when the radiopacity loss was below 5%, slightly radiolabile when the radiopacity loss was comprised between 5 to 25% radiopacity loss (score=1), moderately radiolabile when the radiopacity loss was comprised between 26 to 69% radiopacity loss (score=2) and highly radiolabile when the radiopacity loss was comprised between 70to 100% radiopacity loss (score=3). Homogeneity of the radiopacity was also scored as non-homegeneous (score=0) or homogeneous (score=1).
The procedure was as defined above. It can be observed that formulations with high logP values, i.e. above 7.0, are radiostable, while formulations with low logP values, i.e. below 2.0 (logP (LFE13)=−1.6 and logP (LFE23) at pH 7.4=−0.5) lose their radiopacity within minutes.

renal artery = experiment: In vivo embolization of porcine kidney; conditions: 0.6 ml injected into the renal artery, 35 kg swine
Method: In this example, a 35 kg swine was prepared for blood vessel embolization using the embolic composition LFE09 prepared according to Example 2. Embolization of the left kidney proceeded by placement of a microcatheter into the kidney. The catheter was advanced into the renal artery, flushed with contrast agent to identify the location and then flushed with DMSO, followed by 0.6 ml of the LFE09 composition described above, followed yet by more DMSO within the catheter. LFE09 composition was quickly injected into the renal artery. […] After 14 days, the right kidney was embolized with 0.6 ml of the same LFE09 formulation and the animal was euthanized.

[3] = Radiopacity loss and homogeneity of precipitates incubated in PBS at 37° C.; type: physicochemical; conditions: 30 min of incubation in PBS at 37° C.
[4] = 30 days of incubation in PBS at 37° C.

SMILES	Precipitation (0-2) [1]	Homogeneous radiopacity (0-1) [2]	% of radiopacity compared to time zero [2, 4] [%]	radiopacity loss in PBS over time (in words) [2]	% of radiopacity compared to time zero ([2]; t zero) [%]	% of radiopacity compared to time zero [3] [%]	Radiopacity loss (0-3) [2]	embolization of the kidney (in words) (renal artery)
CCCOC(=O)Cn1cc(I)c(=O)c(I)c1 [LFE03]	2	1	14.5	significant radiopacity loss	100.0	–	3 (highly radiolabile when the radiopacity loss was comprised between 70to 100% radiopacity loss (score=3))	–
CCCCCCOC(=O)Cn1cc(I)c(=O)c(I)c1 [LFE04]	2	1	–	–	–	–	2 (moderately radiolabile when the radiopacity loss was comprised between 26 to 69% radiopacity loss (score=2))	–
COCCOCCOCCOCCOCCOCCOCCOCCOCCOCCOCCOCCOc1c(I)cc(I)cc1I [LFE08]	0	1	29.3	significant radiopacity loss	100.0	–	2 (moderately radiolabile when the radiopacity loss was comprised between 26 to 69% radiopacity loss (score=2))	–
CN(C(=O)CO)c1c(I)c(C(=O)NCC(O)CO)c(I)c(C(=O)NCC(O)CO)c1I (centres unmarked) [LFE13, iomeprol, reference compound]	0	1	11.9	–	100.0	29.0	3 (highly radiolabile when the radiopacity loss was comprised between 70to 100% radiopacity loss (score=3))	–
CC(=O)OCC(=O)N(C)c1c(I)c(C(=O)NCC(COC(C)=O)OC(C)=O)c(I)c(C(=O)NCC(COC(C)=O)OC(C)=O)c1I (centres unmarked) [LFE14]	2	1	–	–	–	–	3 (highly radiolabile when the radiopacity loss was comprised between 70to 100% radiopacity loss (score=3))	–
COCCOCCOCCOCCOCCOCc1cc(I)cc(I)c1I [LFE19]	2	1	–	–	–	–	1 (slightly radiolabile when the radiopacity loss was comprised between 5 to 25% radiopacity loss (score=1))	–
CCCCCCOC(=O)c1c(I)c(NC(C)=O)c(I)c(NC(C)=O)c1I [LFE21]	2	1	91.4	significant radiopacity loss	100.0	–	1 (slightly radiolabile when the radiopacity loss was comprised between 5 to 25% radiopacity loss (score=1))	–
CCCOC(=O)c1c(I)c(NC(C)=O)c(I)c(NC(C)=O)c1I [LFE22]	2	1	–	–	–	–	1 (slightly radiolabile when the radiopacity loss was comprised between 5 to 25% radiopacity loss (score=1))	–
CC(=O)Nc1c(I)c(NC(C)=O)c(I)c(C(=O)O)c1I [LFE23, Diatrizoic acid, reference compound]	1	1	19.0	–	100.0	35.6	3 (highly radiolabile when the radiopacity loss was comprised between 70to 100% radiopacity loss (score=3))	–
CCCCC(CC)COc1c(I)cc(I)cc1I (centres unmarked) [LFE24]	1	0	101.9	complete radiostability	100.0	101.3	0 (radiostable (score =0) when the radiopacity loss was below 5%)	–

Continued, in another order:

Precipitation (0-2) [1]	Homogeneous radiopacity (0-1) [2]	% of radiopacity compared to time zero [2, 4] [%]	radiopacity loss in PBS over time (in words) [2]	% of radiopacity compared to time zero ([2]; t zero) [%]	% of radiopacity compared to time zero [3] [%]	SMILES	Radiopacity loss (0-3) [2]	embolization of the kidney (in words) (renal artery)
2	0	–	–	–	–	CCCCCCOc1c(I)cc(I)cc1I [LFE01]	1 (slightly radiolabile when the radiopacity loss was comprised between 5 to 25% radiopacity loss (score=1))	–
1	0	–	–	–	–	CCOC(=O)COc1c(I)cc(I)cc1I [LFE02, ethyl 2,4,6-triiodophenoxyacetate]	2 (moderately radiolabile when the radiopacity loss was comprised between 26 to 69% radiopacity loss (score=2))	–
2	0	–	–	–	–	COCCOCCOCCOc1c(I)cc(I)cc1I [LFE05]	3 (highly radiolabile when the radiopacity loss was comprised between 70to 100% radiopacity loss (score=3))	–
2	1	–	–	–	–	OCCOCCOCCOc1c(I)cc(I)cc1I [LFE06]	2 (moderately radiolabile when the radiopacity loss was comprised between 26 to 69% radiopacity loss (score=2))	–
2	1	–	–	–	–	COCCOCCOCCOCCOCCOc1c(I)cc(I)cc1I [LFE07]	2 (moderately radiolabile when the radiopacity loss was comprised between 26 to 69% radiopacity loss (score=2))	–
2	1	64.7	significant radiopacity loss	100.0	–	COCCOCCOCCOC(=O)COc1c(I)cc(I)cc1I [LFE09]	3 (highly radiolabile when the radiopacity loss was comprised between 70to 100% radiopacity loss (score=3))	the upper pole of the kidney was blocked
2	1	–	–	–	–	O=C(COc1c(I)cc(I)cc1I)OCCOCCOCCO [LFE10]	3 (highly radiolabile when the radiopacity loss was comprised between 70to 100% radiopacity loss (score=3))	–
2	0	–	–	–	–	CC(=O)OCCOCCOCCOc1c(I)cc(I)cc1I [LFE12]	2 (moderately radiolabile when the radiopacity loss was comprised between 26 to 69% radiopacity loss (score=2))	–
2	1	–	–	–	–	O=C(OCCOCCOCCOCCOCCO)c1cc(I)cc(I)c1I [LFE17]	2 (moderately radiolabile when the radiopacity loss was comprised between 26 to 69% radiopacity loss (score=2))	–
2	0	–	–	–	–	COCCOCCOCCOCc1cc(I)cc(I)c1I [LFE20]	1 (slightly radiolabile when the radiopacity loss was comprised between 5 to 25% radiopacity loss (score=1))	–
